In patent US20150164117A1, “ENCAPSULATION OF FRAGRANCE AND/OR FLAVORS IN SILK FIBROIN BIOMATERIALS” (Tufts University, priority 2012, published 2015):
Several values for one entry are separate records, joined by “and”; a condition that tells them apart may be missing. Identical values can stand only once. Values belong to the compound of their own block, whether it stands above or below them.

How the values were obtained:
[1] = Dissolution of untreated loaded silk films and release of load in aqueous medium; assay type: physicochemical
Experimental: Rapid dissolution of films loaded with a dye and release of the dye from the films occur when the films are immersed in ˜37° C. buffer (FIG. 10). Dissolvable silk films loaded with an odor-releasing substance and/or flavoring substance (e.g., ˜0.5, 0.25 or 0.125 mg of adenosine per 0.2 mm^2 film) released the majority of the drug load (approx. 80%) within 15 minutes of exposure to 37° C. phosphate buffered saline (PBS) (Data not shown).

[2] = TGA with stepwise isothermal segments, fragrance protection by PEO/silk coatings; assay type: physicochemical; conditions: limonene containing microparticles
Text: It has been previously discussed that hydrated barriers can alter the rate of compound release from aqueous silk, hyaluronic acid, gelatin, and alginate constructs (Guziewicz et al., 2011; Elia et al., 2011; Omi et al., 1991; Sriamornsak et al., 2007; Chan et al., 2007; and Li et al., 2006). In combination with the hydrophobic nature of the fragrances, a protective barrier designed to maintain moisture can be desired. The coating scheme is illustrated in FIG. 27A. Each coating comprises a polyethylene oxide (PEO) layer surrounded by a silk fibroin film. Particles were coated with one, three or five coatings and a modified TGA was performed to assess fragrance retention. […] FIGS. 27B-27D depict scanning electron micrographs of these particles.
(§1) Thermogravimetric analysis (TGA) (TA Instruments Q500) was used to measure weight changes in the microparticles. For rapid estimates of microparticle composition the TGA was heated from 23° C. to 500° C. at a rate of ˜20° C./min. To distinguish surface fragrance from encapsulated fragrance, samples were run with a ˜250 minute incubation at 50° C. prior to continued heating. For analysis of fragrance protection the TGA was held isothermal for 30 minutes every 20° C. interval from 70° C. up to 210° C. For each segment weight loss was monitored and attributed to fragrance release from the microparticles.

[3] = Interfacial tension between silk solution and limonene (pendant drop); assay type: physicochemical
Experimental: To elucidate the interaction of silk and the fragrance oils the interfacial tension was measured. Interfacial tension between the two liquids dictates emulsion stability and ultimately microparticle size and distribution (Terjung et al., 2012). Various silk concentrations were assessed along with three silk molecular weight ranges: low, medium and high based on degumming times of ˜60, ˜30 and ˜10 minutes respectively. […] Interfacial tension drops when the molecular weight of the silk protein is decreased. This is in agreement with other studies that show a dependence of surface tension on molecular weight and molecular chain branching (Dettre et al., 1966 and Legrand et al., 1969). […] The highest interfacial tension was 8.16+/−0.57 mN/m for the […] molecular weight silk at a concentration of about 2%. […] Hung et al. discussed that an increase in the concentration of short chain molecules can correspond to a decrease in interfacial tension in an aqueous system (Ly et al. 2004). This is a behavior indicative of emulsifiers, which traditionally serve to stabilize mixtures and generally show better stability with increase in concentration (Djakovic et al., 1987).
Interfacial tension measurements were made using a Ramé-Hart Goniometer (Model 200) running DROPimage Standard analysis software. A silk solution drop of known volume was suspended on the tip of a needle which was submerged in the fragrant oil creating a pendent drop. The DROPimage software used the pendant drop image as well as known density values to calculate interfacial tension at the liquid-liquid interface.

[4] = assay type: physicochemical
Experimental: To determine fragrance content, thermogravimetric analysis (TGA) was performed on fragrance-loaded sill microparticles. Samples were allowed to air dry for 24 hours prior to analysis. FIGS. 18D-18F depict the results of the TGA for encapsulation of three fragrances, while FIGS. 18A-18C show the individual emulsion components. A small increase in temperature causes the ethanol to volatilize rapidly, while the silk and vegetable oil only begin to degrade at temperatures of 220° C. and 300° C. respectively. The fragrances used are highly volatile and were expected to vaporize well before the silk and oil components. As shown in FIG. 18D-18F, it is difficult to distinguish the fragrance component from the ethanol, they are both released from the microparticles in the same temperature range. To estimate the fragrance content, the change in rate of weight loss during heating from 23° C. to 100° C. was taken as the transition between primarily ethanol evaporation prior to change in rate and fragrances loss subsequently.
To address concerns with release between ethanol and the encapsulated fragrance, a 250 minute incubation at 50° C. was employed during a second set of TGA runs. This incubation was added to ensure that any free surface fragrance and ethanol would vaporize prior to further temperature ramping. After incubation the silk particles contain fragrance only if it was entrapped within the silk.
as §1

[5] = Size of fragrance-loaded silk microparticles from silk/fragrance emulsions; assay type: physicochemical; conditions: n = 3
Experimental: To determine the effectiveness of encapsulation of a silk based oil-water-oil system, fragrance oils targeted for encapsulation were added to the silk/polyvinyl alcohol (PVA) aqueous phase at ratios ranging from 1:2 up to 1:8 (v:v). The ratio of silk to fragrance oils was altered prior to sonication and addition of secondary oil phase. […] Formation of fragrance-loaded silk microparticles was more challenging at ˜1% silk concentrations for any of the fragrances tested.
The water phase was created by combining 5:1 (v:v) silk fibroin solution with 3% (w/v) PVA solution. The oil fragrance targeted for encapsulation was manually added to an aqueous phase. The stable primary O/W emulsion was sonicated (20% for 20 seconds) to disperse the oil, reduce the diameter of the oil particles and initiate β-sheet formation. The vegetable oil (sunflower oil) was added as the secondary oil phase at a 10:1 volumetric ratio with respect to the primary emulsion. The O/W/O emulsion was vortexed at high speed for 30 seconds and incubated overnight at room temperature. The microparticles were collected via centrifugation, and excess oil was removed by two successive ethanol rinses. The isolated particles were resuspended in deionized water and stored at room temperature.

[6] = Limonene release in water from limonene/silk/PVA microparticles (TGA after soaking); assay type: physicochemical
Experimental: FIGS. 22A-22B are data graphs showing retention/release of fragrance from the fragrance-encapsulated silk microparticles under a specified condition. The microparticles were then diluted in water and passed through 120 μm filter. The isolated microparticles were then incubated in water to determine fragrance release over time. FIG. 22A is a data graph of TGA (performed with ˜250 min 50° C. incubation, followed by ramping to 400° C. at 5° C./min) showing weight loss of fragrance-encapsulated silk microparticles over a period of time when subjected to various temperatures. […] These silk microparticles show retention across 14 days without any additional coatings. FIG. 22B is a bar graph showing percents of encapsulated limonene release in water from O/W/O PVA silk microparticles without coatings. Using the “no release” as the reference point for fragrance content, there was about 2-3% difference in mass for fragrance-encapsulated silk microparticles soaked in water. Mass loss corresponds to fragrance loss during soaking in an aqueous environment, with an increase of fragrance release after longer exposure to the aqueous environment.

[7] = cited from earlier work
[8] = silk concentration ~3%, fragrance:silk ~1:2
[9] = silk concentration ~5%, fragrance:silk ~1:2

Compound: Nc1ncnc2c1ncn2[C@@H]1O[C@H](CO)[C@@H](O)[C@H]1O [adenosine]
- Drug load released ([1]; dissolvable silk films, ~0.5, 0.25 or 0.125 mg per 0.2 mm^2 film, within 15 minutes in 37° C. PBS, data not shown): approx. 80%

Compound: vegetable oil
- Temperature at which degradation begins [4]: 300 °C

Compound: C/C=C/C(=O)C1C(C)C=CCC1(C)C (centres unmarked) [Delta-Damascone]
- Microparticle size [5, 8]: 7.60 ± 2.71 μm
- Microparticle size [5, 9]: 7.84 ± 1.49 μm
- Log P [7]: 3.91

Compound: CCCC(C)C(=O)OCC (centres unmarked) [Applinate]
- Microparticle size ([5]; silk concentration 3%, fragrance:silk ~1:4): 9.53 ± 2.47 μm
- Microparticle size ([5]; silk concentration 3%, fragrance:silk ~1:8): 9.22 ± 2.79 μm
- Microparticle size ([5]; silk concentration 5%, fragrance:silk ~1:4): 9.64 ± 3.11 μm
- Microparticle size ([5]; silk concentration 5%, fragrance:silk ~1:8): 9.61 ± 2.40 μm
- Microparticle size [5, 8]: 8.49 ± 2.53 μm
- Microparticle size ([5]; silk concentration ~3%, fragrance:silk ~1:2, listed as applinate): 8.49+/−2.53 μm and 8.49 ± 2.53 μm
- Microparticle size [5, 9]: 8.11 ± 1.96 μm
- Microparticle size ([5]; silk concentration ~5%, fragrance:silk ~1:2, listed as applinate): 8.11+/−1.76 μm and 8.11 ± 1.96 μm
- Log P [7]: 2.76

Second part, led by results:

- Weight Loss (%), Total Loss ([2]; 1 PEO/silk coating, 70-210° C. segments): 8.2%
- Weight Loss (%) ([2]; 1 PEO/silk coating, isotherm segment 70° C.): 0.179%
- Weight Loss (%) ([2]; 1 PEO/silk coating, isotherm segment 90° C.): 1.024%
- Weight Loss (%) ([2]; 1 PEO/silk coating, isotherm segment 110° C.): 0.154%
- Weight Loss (%) ([2]; 1 PEO/silk coating, isotherm segment 130° C.): 0.342%
- Weight Loss (%) ([2]; 1 PEO/silk coating, isotherm segment 150° C.): 0.323%
- Weight Loss (%) ([2]; 1 PEO/silk coating, isotherm segment 170° C.): 0.367%
- Weight Loss (%) ([2]; 1 PEO/silk coating, isotherm segment 190° C.): 2.465%
- Weight Loss (%) ([2]; 1 PEO/silk coating, isotherm segment 210° C.): 3.3201%
- Weight Loss (%), Total Loss ([2]; 3 PEO/silk coatings, 70-210° C. segments): 1.2%
- Weight Loss (%) ([2]; 3 PEO/silk coatings, isotherm segment 70° C.): 0.035%
- Weight Loss (%) ([2]; 3 PEO/silk coatings, isotherm segment 90° C.): −0.019%
- Weight Loss (%) ([2]; 3 PEO/silk coatings, isotherm segment 110° C.): 0.091%
- Weight Loss (%) ([2]; 3 PEO/silk coatings, isotherm segment 130° C.): −0.102%
- Weight Loss (%) ([2]; 3 PEO/silk coatings, isotherm segment 150° C.): 0.056%
- Weight Loss (%) ([2]; 3 PEO/silk coatings, isotherm segment 170° C.): 0.288%
- Weight Loss (%) ([2]; 3 PEO/silk coatings, isotherm segment 190° C.): 0.328%
- Weight Loss (%) ([2]; 3 PEO/silk coatings, isotherm segment 210° C.): 0.478%
- Weight Loss (%), Total Loss (fragrance retention) ([2]; 5 PEO/silk coatings, 70-210° C. segments): 16.8%
- Weight Loss (%) ([2]; 5 PEO/silk coatings, isotherm segment 70° C.): 1.535%
- Weight Loss (%) ([2]; 5 PEO/silk coatings, isotherm segment 90° C.): 3.531%
- Weight Loss (%) ([2]; 5 PEO/silk coatings, isotherm segment 110° C.): 3.579%
- Weight Loss (%) ([2]; 5 PEO/silk coatings, isotherm segment 130° C.): 2.391%
- Weight Loss (%) ([2]; 5 PEO/silk coatings, isotherm segment 150° C.): 1.549%
- Weight Loss (%) ([2]; 5 PEO/silk coatings, isotherm segment 170° C.): 1.314%
- Weight Loss (%) ([2]; 5 PEO/silk coatings, isotherm segment 190° C.): 1.278%
- Weight Loss (%) ([2]; 5 PEO/silk coatings, isotherm segment 210° C.): 1.615%
- Interfacial tension ([3]; between silk and limonene, lowest molecular weight and highest silk concentrations): 4.59+/−0.32 mN/m
- Interfacial tension ([3]; between silk and limonene, lowest molecular weight silk at about 2% (highest value found)): 8.16+/−0.57 mN/m
- Interfacial tension ([3]; limonene / 6% silk at 3.1 uM NaCl): 1.82+/−0.39 mN/m
- Interfacial tension ([3]; limonene / unaltered 6% silk (30 minute degummed), n=3): 4.78+/−0.28 mN/m
- Loss of limonene during incubation period ([4]; O/W/O microparticles, TGA with 250 minute incubation at 50° C.): majority of the limonene is lost
- Limonene fraction of microparticles ([4]; preformed PVA/silk microparticles soaked about 1 or about 24 hours in limonene oil, TGA): 85-90%
- Microparticle size [5, 8]: 9.57 ± 2.70 μm
- Microparticle size ([5]; silk concentration ~3%, fragrance:silk ~1:2, listed as limonene): 9.57+/−2.70 μm
- Microparticle size [5, 9]: 12.40 ± 4.76 μm
- Microparticle size ([5]; silk concentration ~5%, fragrance:silk ~1:2, listed as limonene): 12.40+/−4.96 μm
- Difference in mass versus no release (fragrance loss on soaking in water) ([6]; uncoated limonene/silk/PVA O/W/O microparticles soaked in water, TGA): 2-3%
- Retention in water without additional coatings ([6]; uncoated limonene/silk/PVA microparticles incubated in water): 14 days
Compound: C=C(C)C1CC=C(C)CC1 (centres unmarked) [Limonene]

- Microparticle size [5, 9]: 7.71 ± 1.82 μm
Compound: C=CC(C)CCCC(C)(C)O (centres unmarked) [Dihydromyrcenol]
- Log P [7]: 3.25

- Time to full dissolution ([1]; untreated dye-loaded silk film immersed in ~37° C. water): about 30 minutes
Compound: O=C1/C(=C2\Nc3ccc(S(=O)(=O)[O-])cc3C2=O)Nc2ccc(S(=O)(=O)[O-])cc21.[Na+].[Na+] [indigo carmine]
